What all share (test): NCI60 one-dose screen
What all share (assay type): cell-based

One test relates to 786-0. To be noted: Homo sapiens; 786-0, 10 μM; read-out: Growth percent. Put shortly: (§1)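 SRB read-out (515 nm) after 48 h drug exposure at 37 °C, 5% CO2; single dose 10 µM. Value = growth relative to no-drug control and time-zero cell count; 100 = no inhibition, 0 = no net growth, negative = lethality.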
For a further test, the system named is ACHN. To be noted: Homo sapiens, read-out: Growth percent. In short, it runs like this:
as §1

A further test has as its system COLO 205. To be noted: Homo sapiens; COLO 205, 10 μM; read-out: Growth percent. In short, it runs like this: as §1
In a further test the test system is DU-145. As to conditions: Homo sapiens; DU-145, 10 μM; read-out: Growth percent. In short, it runs like this:
as §1

The next test has as its system HOP-62. To be noted: Homo sapiens; HOP-62, 10 μM; read-out: Growth percent. Put shortly:
as §1

A further test deals with HT29. To be noted: Homo sapiens, HT-29; HT29, 10 μM; read-out: Growth percent. In short, it runs like this: as §1
Another test deals with M14. To be noted: Homo sapiens; M14, 10 μM; read-out: Growth percent. Put shortly: as §1
Another test concerns MCF7. To be noted: Homo sapiens; MCF7, 10 μM; read-out: Growth percent. Put shortly:
as §1

A further test has as its system MDA-MB-231/ATCC. To be noted: Homo sapiens, read-out: Growth percent. Put shortly:
as §1

A further test deals with MDA-MB-435. As to conditions: Homo sapiens; MDA-MB-435, 10 μM; read-out: Growth percent. Put shortly: as §1
The subject of the next test is MDA-MB-468. As to conditions: Homo sapiens; MDA-MB-468, 10 μM; read-out: Growth percent. Put shortly: as §1
The subject of the next test is NCI-H226. To be noted: Homo sapiens; NCI-H226, 10 μM; read-out: Growth percent. Put shortly:
as §1

The subject of another test is NCI-H23. As to conditions: Homo sapiens; NCI-H23, 10 μM; read-out: Growth percent. Put shortly:
as §1

The next test has as its system OVCAR-4. As to conditions: Homo sapiens; OVCAR-4, 10 μM; read-out: Growth percent. In short, it runs like this:
as §1

The next test relates to RPMI-8226. To be noted: Homo sapiens; RPMI-8226, 10 μM; read-out: Growth percent. Put shortly: as §1
Another test has as its system SF-539. To be noted: Homo sapiens; SF-539, 10 μM; read-out: Growth percent. Put shortly: as §1
The subject of the next test is SK-MEL-2. To be noted: Homo sapiens; SK-MEL-2, 10 μM; read-out: Growth percent. In short, it runs like this: as §1
For another test, the system named is SK-MEL-5. To be noted: Homo sapiens; SK-MEL-5, 10 μM; read-out: Growth percent. In short, it runs like this:
as §1

The next test has as its system SK-OV-3. As to conditions: Homo sapiens; SK-OV-3, 10 μM; read-out: Growth percent. Put shortly: as §1
For another test, the system named is SNB-19. To be noted: Homo sapiens; SNB-19, 10 μM; read-out: Growth percent. In short, it runs like this: as §1

The source of these data is publication PMC12652692, “Synthesis and In Vitro Anticancer Evaluation of Novel Phosphonium Derivatives of Chrysin” (International Journal of Molecular Sciences, 2025).

Take `Cc1ccc([P+](CCCCOc2cc(O)c3c(=O)cc(-c4ccccc4)oc3c2)(c2ccc(C)cc2)c2ccc(C)cc2)cc1` [3b]: the activity at 10 µM is -69.8% with 786-0; -92.8% in the test with ACHN; -64.5% in the test on COLO 205; -85.9% with DU-145; -62% with HOP-62; -60.7% with HT29. Also, the activity at 10 µM in the test with M14 is -75.2%; in the test on MCF7 it was -74.8%; in the test on MDA-MB-231/ATCC, -90.7%; with MDA-MB-435, -88.2%; with MDA-MB-468, -87%; in the test on NCI-H226 it was -50.2%. In addition, the activity at 10 µM in the test with NCI-H23 is -90.9%; with OVCAR-4, -73.1%; with RPMI-8226, -55.8%; in the test with SF-539, -80.5%; in the test with SK-MEL-2, -76.9%; with SK-MEL-5 it was -96.5%. Besides, the activity at 10 µM with SK-OV-3 was -75.3%; in the test on SNB-19 it was -96.1%.
